This note sets out measurements from ChEMBL document CHEMBL3886598, “Pyrazolyl-pyrimidine derivatives as kinase inhibitors” (2016).

In assay [1] the target is Tyrosine-protein kinase JAK2 (Homo sapiens, UniProt O60674). Put plainly: JAK2 Enzymatic Assay: The assay has been performed using the commercial available JAK2 kinase domain (Invitrogen, Eugene, Oreg.). […] The JAK2 kinase assay was run with a final enzyme concentration of 1 nM, in the presence of 60 uM ATP, 3 nM 33P-γ-ATP and 64 uM of substrate BioDBn*306 (Aminoacid sequence: LPLDKDYYWREPGQ⿿SEQ ID NO: 1). The peptidic substrate was purchased from American Peptide Company (Sunnyvale, Calif.). Specific JAK2, JAK1 or JAK3 peptide substrates are trans-phosphorylated by JAKs kinase in the presence of ATP traced with 33P-γ-ATP. At the end of the phosphorylation reaction, the unreacted ATP, cold and radioactive, is captured by an excess of Dowex ion exchange resin that eventually settles by gravity to the bottom of the reaction plate. The supernatant is subsequently withdrawn and transferred into a counting plate that is then evaluated by […].
Chain of Tyrosine-protein kinase JAK2 (O60674 whole entry, the tested form may be a part): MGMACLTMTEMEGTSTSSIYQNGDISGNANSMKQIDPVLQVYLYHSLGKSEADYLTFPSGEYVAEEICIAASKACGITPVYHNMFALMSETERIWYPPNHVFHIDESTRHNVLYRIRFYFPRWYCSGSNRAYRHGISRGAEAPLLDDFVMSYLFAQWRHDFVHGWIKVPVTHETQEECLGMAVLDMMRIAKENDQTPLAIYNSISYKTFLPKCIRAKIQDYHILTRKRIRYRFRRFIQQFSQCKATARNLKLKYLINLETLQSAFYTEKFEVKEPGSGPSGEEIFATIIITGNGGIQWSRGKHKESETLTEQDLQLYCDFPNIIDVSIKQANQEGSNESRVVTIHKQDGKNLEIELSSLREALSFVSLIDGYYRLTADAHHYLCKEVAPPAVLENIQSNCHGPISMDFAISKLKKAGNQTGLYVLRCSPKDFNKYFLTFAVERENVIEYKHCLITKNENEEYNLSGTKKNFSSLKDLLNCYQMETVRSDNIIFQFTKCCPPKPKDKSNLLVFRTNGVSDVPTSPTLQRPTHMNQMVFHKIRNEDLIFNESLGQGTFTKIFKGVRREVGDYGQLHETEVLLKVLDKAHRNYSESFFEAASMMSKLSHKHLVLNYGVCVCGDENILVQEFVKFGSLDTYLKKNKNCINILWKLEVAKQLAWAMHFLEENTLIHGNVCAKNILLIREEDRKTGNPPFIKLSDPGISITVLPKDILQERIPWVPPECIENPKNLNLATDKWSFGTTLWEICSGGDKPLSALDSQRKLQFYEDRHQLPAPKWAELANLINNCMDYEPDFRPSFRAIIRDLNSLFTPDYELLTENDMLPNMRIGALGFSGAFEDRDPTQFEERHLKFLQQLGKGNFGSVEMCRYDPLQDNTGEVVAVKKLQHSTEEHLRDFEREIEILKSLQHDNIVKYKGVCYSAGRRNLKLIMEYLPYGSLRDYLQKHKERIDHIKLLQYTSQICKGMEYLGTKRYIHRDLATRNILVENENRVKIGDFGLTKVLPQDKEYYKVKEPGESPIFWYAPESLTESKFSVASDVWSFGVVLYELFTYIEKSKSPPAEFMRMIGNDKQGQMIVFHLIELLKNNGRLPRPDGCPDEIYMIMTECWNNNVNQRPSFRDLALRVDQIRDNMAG

Assay [2] deals with T1, Tyrosine-protein kinase JAK3 (Homo sapiens, UniProt P52333).
T1 sequence (P52333 whole entry): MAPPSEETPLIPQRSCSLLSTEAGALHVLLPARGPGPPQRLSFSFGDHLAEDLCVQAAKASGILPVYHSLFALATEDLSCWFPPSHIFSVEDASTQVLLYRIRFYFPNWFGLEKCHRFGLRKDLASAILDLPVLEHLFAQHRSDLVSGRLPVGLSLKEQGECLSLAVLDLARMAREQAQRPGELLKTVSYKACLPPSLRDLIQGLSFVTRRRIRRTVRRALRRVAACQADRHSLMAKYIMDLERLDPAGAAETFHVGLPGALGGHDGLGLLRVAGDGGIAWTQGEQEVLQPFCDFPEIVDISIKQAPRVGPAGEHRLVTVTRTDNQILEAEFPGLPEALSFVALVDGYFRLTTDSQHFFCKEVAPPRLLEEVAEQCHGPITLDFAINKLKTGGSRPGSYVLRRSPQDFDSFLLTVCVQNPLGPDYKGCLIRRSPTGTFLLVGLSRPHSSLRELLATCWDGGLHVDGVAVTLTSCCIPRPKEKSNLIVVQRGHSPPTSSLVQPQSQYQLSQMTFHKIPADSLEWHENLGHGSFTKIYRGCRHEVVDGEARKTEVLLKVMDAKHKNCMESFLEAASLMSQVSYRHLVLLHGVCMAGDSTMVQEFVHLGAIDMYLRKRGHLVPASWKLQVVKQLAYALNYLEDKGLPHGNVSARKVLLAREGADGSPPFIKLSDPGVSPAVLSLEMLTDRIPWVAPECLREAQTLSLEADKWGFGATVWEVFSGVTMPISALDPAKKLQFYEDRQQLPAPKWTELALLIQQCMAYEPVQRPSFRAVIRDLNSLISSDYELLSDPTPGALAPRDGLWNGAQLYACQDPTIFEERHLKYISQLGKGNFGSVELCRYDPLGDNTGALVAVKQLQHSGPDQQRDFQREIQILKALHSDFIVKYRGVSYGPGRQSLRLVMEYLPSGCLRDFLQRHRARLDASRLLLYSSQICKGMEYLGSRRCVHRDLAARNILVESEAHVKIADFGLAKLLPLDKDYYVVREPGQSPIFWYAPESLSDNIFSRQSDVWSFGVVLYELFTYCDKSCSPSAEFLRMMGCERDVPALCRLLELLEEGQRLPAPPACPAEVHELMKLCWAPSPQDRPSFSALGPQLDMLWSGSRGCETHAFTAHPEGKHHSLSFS
Put plainly: JAK3 Enzymatic Assay: The assay has been performed using the JAK3 kinase domain (residues 781-1124 of the 1124 amino acid long full-length sequence, accession number P52333 of UniProtKB/Swiss-Prot databse). […] The JAK3 kinase assay was run with a final enzyme concentration of 1 nM, in the presence of 22 uM ATP, 1 nM 33P-γ-ATP and 40 uM of substrate BioDBn*306 (Amino acid sequence: LPLDKDYYWREPGQ-SEQ ID NO: 1). The peptidic substrate was purchased from American Peptide Company (Sunnyvale, Calif.).

Turning to `CCc1ccc(Cl)cc1-n1nc(-c2ccnc(N)n2)cc1C(N)=O`, the IC50 in assay [1] and in assay [2] was < 5 µM each time.

The term IC50 denotes the concentration that inhibits the measured activity by half.
